Experimental data taken from patent publication US10493061B2, “Compositions and methods comprising 2-(acylamino)imidazoles” (priority 2014, dated 2019).

What was measured:
[1] = tested on: untransformed MCF-10A cells; assay: Clonogenic cell survival assay; conditions: 24 hours ZNA, then three weeks of growth, crystal violet
Procedure: Clonogenic cell survival assays were conducted as described in Franken NAP, Rodermond H M, Stap J, Haveman J, van Bree C.
Further experiments were also conducted to assess the effects of short-term ZNA treatment on long-term cell survival and proliferation. Cells were treated for 24 hours with ZNA then cultured in the absence of the small molecule; following three weeks of growth, colonies were stained with crystal violet and quantified (FIG. 1D).

[2] = in vivo; set-up: species or system Sprague-Dawley rats; conditions: rat
Procedure: ZNA has promising pkpd parameters. An initial pharmacokinetic (PK) analysis on ZNA was performed at 1 mg/kg IV, 5 mg/kg PO. ZNA was dosed to female Sprague-Dawley rats at either 1 mg/kg intravenously or at 5 mg/kg orally. Plasma was collected with K2EDTA and stored at −80° C. until analysis. Quantification of ZNA was performed by protein precipitation followed by ultra-high performance liquid chromatography (UHPLC) interfaced to an electrospray ionization quadrapole time-of-flight mass spectrometer (ESI-QTOF). Plasma concentrations were determined from a calibration curve using […]. The values determined were fit with Phoenix WinNonlin and pharmacokinetic values reported.
The plasma concentrations for ZNA were very low, and most samples fell below the lower limit of quantification for the assay (10.0 ng/mL). This limited the data available for fitting in WinNonlin. To increase the amount of data for fitting, values from below the curve were extrapolated to approximately 40% of the LLOQ and were used for PK fitting. The percent of the area extrapolated in the PO PK animals ranged from 34-70% which was considered quite high. […] The oral bioavailability determined was approximately 6%. This value is considered a rough estimate based upon the area extrapolated and the unusually high clearance determined. […] Possible explanations for the high clearance are binding of compound to red blood cells, extremely rapid clearance that requires collection of earlier time points to establish a more accurate CO, and extrahepatic elimination.

[3] = Isothermal titration calorimetry of the small molecule with zinc or copper; type: binding; conditions: ITC, data not shown
[4] = tested on: MCF-10A cells; assay: Intracellular Zn^2+ by FluoZin-3 staining and flow cytometry; type: cell-based, human
Procedure: Measurement of intracellular Zn^2+ by FluoZin-3 staining: Cells were seeded in 6-well plates at a density such that at the time of analysis, wells would be 70-80% confluent. Following the completion of treatment, the drug-containing media was removed and replaced with Hank's Balanced Salt Solution (HBSS, Life Technologies) containing 2.5 μM FluoZin-3. The cells were incubated with the indicator for 30 minutes at room temperature in the dark. After staining, the cells were trypsinized, resuspended in HBSS containing 2% FBS, and relative mean fluorescence was measured by flow cytometry (FACscan, BD Biosciences, San Jose, Calif., USA).
In order to determine whether the transcriptional changes in metal trafficking genes were functionally relevant to ZNA's mechanism of action, intracellular Zn^2+ was quantified using the fluorescent indicator FluoZin-3 followed by flow cytometry analysis (FIG. 1G).
To better understand the cancer-selective synergism observed between ZNA and Zn^2+, an experiment was conducted to measure intracellular Zn^2+ using the fluorescent Zn^2+ indicator FluoZin-3.
Further probing the ability of ZNA to stimulate increases in intracellular Zn^2+, MCF-10A and MCF-7 cells were treated for three hours with 30 μM ZNA (both with and without exogenous ZnSO4) in zinc-free media; intracellular zinc was then quantified by FluoZin-3 staining (FIG. 3B).

[5] = tested on: pleural effusion (PE1100025) primary metastatic breast cancer cells; assay: 12-point dose response, ATP cell viability assay; type: cell-based, human; conditions: 12-point dose response
[6] = tested on: MDA-MB-231 cells; assay: Total cellular Zn^2+ by ICP-AES; type: cell-based, human; conditions: 30 μM ZNA with 30 μM ZnSO4, three hours
Procedure: Inductively coupled plasma-atomic emission spectroscopy (ICP-AES) analysis: Cells were cultured to 80% confluence in 10-cm plates and the growth media was then replaced with low serum (2% FBS) drug-containing media. After three hours of treatment, the media was discarded and the cells washed with 1×PBS. To each 10-cm plate, 1 mL of nitric acid (TraceSELECT Ultra for trace analysis, Sigma) was added directly to the plate. The nitric acid mixture was submitted for inductively coupled plasma-atomic emission spectroscopy (ICP-AES) analysis following methods established by the Environmental Protection Agency. Martin T D, Brockhoff C A, Creed J T. Method 200.7 Determination of Metals and Trace Elements in Water and Wastes by Inductively Coupled Plasma-Atomic Emission Spectrometry. Environmental Monitoring Systems Laboratory, US Environmental Protection Agency 1994. The experiment was performed in triplicate for each cell line and a fourth plate of cells was used to measure total protein (BCA assay, Thermo Fisher, Waltham, Mass., USA). The ICP-AES data were then normalized to total protein for each cell line used.
To further validate the combinatorial effect of ZNA and Zn^2+, inductively coupled plasma-atomic emission spectroscopy (ICP-AES) was employed to quantify absolute levels of cellular Zn^2+ following treatment. Four cell lines were treated with either 30 μM ZNA alone or 30 μM ZNA in conjunction with 30 μM ZnSO4 for three hours before harvesting. The samples were then analyzed by ICP-AES and the resulting data normalized to total protein (FIG. 8). […] The values obtained from the ICP-AES experiment correlate with the trends observed following FluoZin-3 measurements of Zn^2+, confirming the specificity of the fluorophore for Zn^2+ over other ions.

[7] = tested on: mouse metallothionein expression (MT1 and MT2) in renal and hepatic tissue; assay: RT-PCR of metallothionein expression in tissue of treated mice; type: in vivo, FVB/NJ mice; conditions: ZNA 100 mg/kg intraperitoneal
Procedure: Real-Time PCR (RT-PCR): For experiments designed to measure gene expression, real-time PCR (RT-PCR) was conducted using a LightCycler 480 (Roche, Basel, Switzerland) and KAPA SYBR FAST qPCR Master Mix (Kapa Biosystems, Boston, Mass., USA). […] Genomic DNA was removed with a DNase digest and 1 μg of RNA was used to synthesize cDNA using a Superscript III Reverse Transcriptase kit from Invitrogen per the manufacturer's protocol; after an RNase H digestion, RT-PCR was performed in a 5 μL reaction using KAPA SYBR FAST qPCR Master Mix (Kapa Biosystems, Boston, Mass., USA). […]; Nat Protocols 2008; 3(6):1101-08. For tissue derived from mouse in vivo experiments, fresh tissue was homogenized using a TissueLyser II for 3 minutes at 30 Hz before isolating RNA.
The next experiment established the relevancy of the biological pathways targeted by ZNA in a whole organism tumor model. To establish bioactivity, the response of normal tissue to ZNA was evaluated. Non-tumor bearing FVB/NJ mice were treated with ZNA (at 100 mg/kg administered via intraperitoneal injection) or a control for either 3 or 24 hours. RT-PCR was used to assess mouse metallothionein expression (MT1 and MT2) in renal and hepatic tissue from the treated mice.

SMILES: COc1ccc(-c2c(Cc3ccccc3)[nH]/c(=N\C(=O)c3ccccc3F)n2C)cc1 [ZNA, (E)-N-(4-benzyl-5-(4-methoxyphenyl)-1-methyl-1H-imidazol-2(3H)-ylidene)-2-fluorobenzamide]
- long-term proliferative potential (colonies) [1]: greatly attenuated
- bioavailability ([2]; female, Sprague-Dawley): ~6%
- half-life ([2]; female, Sprague-Dawley): 114 min
- clearance relative to hepatic blood flow ([2]; female, Sprague-Dawley, iv): 235%
- AUC(0-inf) ([2]; female, Sprague-Dawley, iv, 1 mg/kg, AUCINF_obs): 129 ng·h/mL
- AUC ([2]; female, Sprague-Dawley, iv, 1 mg/kg, AUCall): 119 ng·h/mL
- MRT inf ([2]; female, Sprague-Dawley, iv, 1 mg/kg, MRTINF_obs): 2.1 h
- percent of the area extrapolated ([2]; female, Sprague-Dawley, po): 34-70%
- Cmax ([2]; female, Sprague-Dawley, po, 5 mg/kg, Cmax): 11.5 ng/mL
- volume of distribution ([2]; iv): very high volume of distribution
- direct interaction with zinc or copper [3]: no evidence to suggest direct binding
- FluoZin-3 fluorescence ([4]; 30 μM ZNA alone, three hours, zinc-free media): no significant increase in FluoZin-3 fluorescence
- intracellular zinc (FluoZin-3) ([4]; 30 μM ZNA alone, up to 48 hours): only modest increases in intracellular zinc
- increase in FluoZin-3 fluorescence ([4]; 30 μM ZNA with 30 μM ZnSO4, three hours): 9 fold
- fluorescence (FluoZin-3) ([4]; ZNA and ZnSO4, three hours, zinc-free media, compared to ZnSO4 alone): reduction in fluorescence
- cell viability [5]: effective at low micromolar concentrations
- concentration of Zn^2+ [6]: 0.82 ng Zn^2+ per microgram of protein
- MT1 and MT2 expression ([7]; 3 hours, vs control treated mice): increased
- MT1 and MT2 expression ([7]; 24 hours): decreased
